The source made the active and inactive calls.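 Rule for the calls: active = chemicals rated mutagenic or weakly mutagenic in the Salmonella bacterial test by one literature review, or positive overall by another; inconclusive = no clear call, values can overlap the other calls; inactive = the rest.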
Test system: Salmonella typhimurium Ames mutagenicity, literature compiled
Assay: DSSTox (CPDBAS) Carcinogenic Potency Database Salmonella Mutagenicity
Text: The Carcinogenic Potency Database (CPDB) is a unique and widely used international resource of the results of over 6500 chronic, long-term animal cancer tests on over 1500 chemical substances. The CPDB provides easy access to the bioassay literature, with qualitative and quantitative analyses of both positive and negative experiments that have been published over the past 50 years in the general literature and by the National Cancer Institute/National Toxicology Program. The CPDB standardizes the diverse literature of cancer bioassays that vary widely in protocol, histopathological examination and nomenclature, and in the published author's choices of what information to provide in their papers. Results are reported in the CPDB for tests in rats, mice, hamsters, dogs, and nonhuman primates, and are based on the most positive result among all experiments for each sex-species. The DSSTox CPDBAS (all species) file incorporates data from the CPDB Summary Tables for the full list of over 1500 chemical substances tested in at least one species.
A chemical is classified within the CPDB as mutagenic, i.e. "active", in the Salmonella assay if it was evaluated overall as either "mutagenic" or "weakly mutagenic" by Zeiger [Zeiger, E. (1997) Genotoxicity Database. In: Gold and Zeiger, Eds. Handbook of Carcinogenic Potency and Genotoxicity Databases. Boca Raton, FL: CRC Press, pp. 687-729. http://potency.berkeley.edu/CRCbook.html] or as overall "positive" by the EPA Gene-Tox Program [Kier et al. (1986) Mutat. Res. 168: 69-240].

SMILES	outcome
c1ccc2sc(SSc3nc4ccccc4s3)nc2c1	active; inactive
CC(COc1ccccc1)N(CCCl)Cc1ccccc1 (stereo not drawn)	active; inactive
O=NN1CCNCC1	active
O=NN1CCCCCCCCCCCC1	active; inactive
O=C(O)COc1ccc(Cl)cc1Cl	inactive
Brc1c(Br)c(Br)c(Oc2c(Br)c(Br)c(Br)c(Br)c2Br)c(Br)c1Br	inactive; active
O=[N+]([O-])c1ccc(Oc2ccc(Cl)cc2Cl)cc1	active
CCBr	active
COP(=O)(OC)C(O)C(Cl)(Cl)Cl (stereo not drawn)	active
Cc1cc(=O)[nH]c(=S)[nH]1	inactive
O.O=S(=O)([O-])[O-].[Mn+2]	inactive; active
NC(=O)N(CC(=O)O)N=O	inactive
CCN(CC)N=O	active; inactive
OCCO	inactive
Cc1ccc(N)cc1Cl	inactive; active
OCCOCCO	inactive; active
C=CCN=C=S	active
CC1CO1 (stereo not drawn)	active
Cc1ccc2ncccc2c1	active
COc1cccc2c1cc([N+](=O)[O-])c1c(C(=O)O)cc3c(c12)OCO3	active
O=C(Nc1nc(-c2ccc([N+](=O)[O-])o2)cs1)C(F)(F)F	active
Cc1cc(C(C)(C)C)c(O)c(C(C)(C)C)c1	inactive
O=C1O[C@H]([C@H](O)CO)C(O)=C1O	inactive
COc1ccc(O)c(C(C)(C)C)c1	inactive; active
ClC(Cl)(Cl)Cl	inactive; active

SMILES	outcome
COC(=O)c1ccc(C(=O)OC)cc1	inactive; active
Cc1ccc(O)c(O)c1	inactive; active
C=C(C)C	inactive
O=NN1CCC(O)C1 (stereo not drawn)	active
O=[N+]([O-])c1ccc2c3c(cccc13)CC2	active
C[C@]12CC[C@@H]3c4ccc(O)cc4CC[C@H]3[C@@H]1CC[C@@H]2O	inactive
CCOc1ccc(NC(C)=O)cc1[N+](=O)[O-]	active; inactive
C=CCc1ccc(O)c(OC)c1	inactive
ClCc1ccccn1	active
Clc1ccc(C(c2ccc(Cl)cc2)C(Cl)(Cl)Cl)cc1	inactive
Clc1ccc(C(c2ccc(Cl)cc2)C(Cl)Cl)cc1	inactive
Nc1ccc(NCCO)c([N+](=O)[O-])c1	active
C=CN1CCCC1=O	inactive
C=CCOCC1CO1 (stereo not drawn)	active
CCN(Cc1cccc(S(=O)(=O)[O-])c1)c1ccc(C(=C2C=CC(=[N+](C)C)C=C2)c2ccc(N(CC)Cc3cccc(S(=O)(=O)O)c3)cc2)cc1	active
O=[N+]([O-])c1ccc(Cl)cc1	active
CCCCCCCCS(=O)C(C)Cc1ccc2c(c1)OCO2 (stereo not drawn)	inactive; active
O=C(O)CCCc1ccc(N(CCCl)CCCl)cc1	active; inactive
CCC(C)c1cc([N+](=O)[O-])cc([N+](=O)[O-])c1O (stereo not drawn)	inactive
O=C1c2cccc(O)c2C(=O)c2c(O)cccc21	active
Cc1cc(Cl)ccc1N	inactive; active
CCSCCC(N)C(=O)O (stereo not drawn)	inactive
CCOC(=O)CBr	active
Nc1cccc(N)c1	active
C[N+](C)(C)CCCl	inactive; active

SMILES	outcome
CCCc1cc(=O)[nH]c(=S)[nH]1	inactive; active
NNC(=O)c1ccncc1	active; inactive
Nc1cc(S(=O)(=O)[O-])cc2cc(S(=O)(=O)[O-])c(N=Nc3ccc(-c4ccc(N=Nc5c(S(=O)(=O)[O-])cc6cc(S(=O)(=O)[O-])cc(N)c6c5O)c(O)c4)cc3O)c(O)c12.[Cu].[Cu].[Na+].[Na+].[Na+].[Na+]	inactive; active
O=C1c2ccccc2-c2ccc3c4c(ccc1c24)-c1ccccc1C3=O	inactive; active
C1CC2OC2CC1C1CO1 (stereo not drawn)	active
O=S(=O)(O)c1cc(S(=O)(=O)O)c2c(N=Nc3ccccc3)c(O)ccc2c1	inactive; active
O=C(O)CC[N+](=O)[O-]	active; inactive
CN(C)C(=O)Cl	active
Nc1cc([N+](=O)[O-])ccc1C(=O)O	active
CCC(O)OC(O)CC (stereo not drawn)	inactive; active
N[C@@H](Cc1c[nH]c2ccccc12)C(=O)O	inactive; active
CC(=O)OC/C=C(\C)CCC=C(C)C	inactive
FC(Cl)(Cl)Cl	inactive; active
CN(N=O)C(=O)N[C@@H]1[C@@H](O)[C@H](O)[C@@H](CO)O[C@@H]1O	active
O=S(=O)(c1ccc(Cl)cc1)c1ccc(Cl)cc1	inactive
NCCCCCCCCCCC(=O)O	inactive; active
O=CNNc1nc(-c2ccc([N+](=O)[O-])o2)cs1	active; inactive
OCc1ccccc1	inactive
CN(C)C(=O)Nc1ccc(Cl)cc1	inactive; active
CCOC(=O)N(C)N=O	active
NC(=O)CCCCC(N)=O	inactive
NC(=O)N(CCO)N=O	active
Cc1ccc(C)c(N)c1	active; inactive
Nc1cc(Cl)c(N)c(Cl)c1	active
Cc1cc(N=Nc2c(O)ccc3ccccc23)c(S(=O)(=O)O)cc1Cl	active

SMILES	outcome
Cc1ccccc1S(N)(=O)=O	inactive
Clc1ccc(C(c2ccccc2Cl)C(Cl)Cl)cc1 (stereo not drawn)	inactive
O=Cc1ccco1	active; inactive
CCc1nc(N)nc(N)c1-c1ccc(Cl)cc1	inactive; active
CCOc1ccc(NC(C)=O)cc1N	active
[N-]=[N+]=[N-]	active; inactive
CCCN(CCC)c1c([N+](=O)[O-])cc(C(F)(F)F)cc1[N+](=O)[O-]	active
O=P(OCCCl)(OCCCl)OCCCl	inactive
O=[N+]([O-])c1ccc(O)c([N+](=O)[O-])c1	inactive
NC(=S)NNC(N)=S	inactive; inconclusive
Clc1ccccc1	inactive; active
CN=[N+](C)[O-]	active
O=C(O)CN(CCN(CC(=O)O)CC(=O)O)CC(=O)O	inactive
C#C[C@]1(O)CC[C@H]2[C@@H]3CCC4=C(CCC(=O)C4)[C@H]3CC[C@@]21C	inactive; active
NC(N)=NC(N)=NCCc1ccccc1	inactive; active
COc1cc(-c2ccc(N)c(OC)c2)ccc1N	active; inactive
OC(c1ccc(Cl)cc1)(c1ccc(Cl)cc1)C(Cl)(Cl)Cl	inactive; active
C=CCOC(=O)c1ccccc1C(=O)OCC=C	inactive; active
[Cl-].[Cl-].[Sn+2]	inactive
C=C(C)C#N	inactive; active
C=CC(OC(C)=O)c1ccc2c(c1)OCO2 (stereo not drawn)	active
NC(=O)Cc1cccc2ccccc12	active
COc1cc(/C=C/C(=O)CC(=O)/C=C/c2ccc(O)c(OC)c2)ccc1O	inactive
CN(C)N	active
OCCOCCOCCO	active; inactive

SMILES	outcome
Clc1ccccc1Cl	inactive
CC[C@H]1CN2CCc3cc(OC)c(OC)cc3[C@@H]2C[C@@H]1C[C@H]1NCCc2cc(OC)c(OC)cc21	inactive; active
Oc1c(Cl)cc(Cl)c(Cl)c1Cc1c(O)c(Cl)cc(Cl)c1Cl	inactive; active
C[C@@H]1O[C@@H](OC[C@H]2O[C@@H](Oc3c(-c4ccc(O)c(O)c4)oc4cc(O)cc(O)c4c3=O)[C@H](O)[C@@H](O)[C@@H]2O)[C@H](O)[C@H](O)[C@H]1O	active; inactive
O=c1ccc(=O)[nH][nH]1	inactive; active
C=COC(C)=O	inactive
c1ccc(C2CO2)cc1 (stereo not drawn)	active; inactive
CNC(=O)O/N=C/C(C)(C)SC	inactive
Nc1cc([N+](=O)[O-])ccc1O	active
IC(I)I	active
Nc1ccc2c(n1)[nH]c1ccccc12	active
Oc1cccc2cccnc12	active; inactive
COc1cc2c(c3oc(=O)c4c(c13)CC[C@H]4O)[C@@H]1C=CO[C@H]1O2	active
Nc1ccc2c(c1)C(=O)c1ccccc1C2=O	active
S=[Se]	active
[N-]=[N+]=CC(=O)OC[C@H](N)C(=O)O	active
CC(O)c1ccccc1 (stereo not drawn)	inactive; active
O=S1OCC2C(CO1)C1(Cl)C(Cl)=C(Cl)C2(Cl)C1(Cl)Cl (stereo not drawn)	inactive; active
O=NN1CCCCCCC1	active; inactive
CC(=O)OC[C@]12C[C@H](OC(=O)CC(C)C)C(C)=C[C@H]1O[C@@H]1[C@H](O)[C@@H](OC(C)=O)[C@@]2(C)C12CO2 (stereo partly drawn)	inactive
Cc1cccn2c1nc1ccc(N)nc12	active
CC(C)[N+](=O)[O-]	active
CCC[CH2][Sn]([CH2]CCC)([CH2]CCC)[O][Sn]([CH2]CCC)([CH2]CCC)[CH2]CCC	inactive
